Laboratory results reported in patent US9982231B2, “Methods for reprogramming differentiated non-cardiac cells into cardiomyocytes” (The J. David Gladstone Institutes, a testamentary trust …, priority 2013, dated 2018).

Legend:
[1] = molecular target: PDGF receptor tyrosine kinase; conditions: PDGFR kinase / PDGF receptor tyrosine kinase; cited from earlier work
[2] = molecular target: epidermal growth factor receptor (EGFR) (Homo sapiens, UniProt P00533); conditions: EGFR / EGF receptor kinase; cited from earlier work
Sequence of epidermal growth factor receptor (EGFR) (P00533 25-1210, species assumed): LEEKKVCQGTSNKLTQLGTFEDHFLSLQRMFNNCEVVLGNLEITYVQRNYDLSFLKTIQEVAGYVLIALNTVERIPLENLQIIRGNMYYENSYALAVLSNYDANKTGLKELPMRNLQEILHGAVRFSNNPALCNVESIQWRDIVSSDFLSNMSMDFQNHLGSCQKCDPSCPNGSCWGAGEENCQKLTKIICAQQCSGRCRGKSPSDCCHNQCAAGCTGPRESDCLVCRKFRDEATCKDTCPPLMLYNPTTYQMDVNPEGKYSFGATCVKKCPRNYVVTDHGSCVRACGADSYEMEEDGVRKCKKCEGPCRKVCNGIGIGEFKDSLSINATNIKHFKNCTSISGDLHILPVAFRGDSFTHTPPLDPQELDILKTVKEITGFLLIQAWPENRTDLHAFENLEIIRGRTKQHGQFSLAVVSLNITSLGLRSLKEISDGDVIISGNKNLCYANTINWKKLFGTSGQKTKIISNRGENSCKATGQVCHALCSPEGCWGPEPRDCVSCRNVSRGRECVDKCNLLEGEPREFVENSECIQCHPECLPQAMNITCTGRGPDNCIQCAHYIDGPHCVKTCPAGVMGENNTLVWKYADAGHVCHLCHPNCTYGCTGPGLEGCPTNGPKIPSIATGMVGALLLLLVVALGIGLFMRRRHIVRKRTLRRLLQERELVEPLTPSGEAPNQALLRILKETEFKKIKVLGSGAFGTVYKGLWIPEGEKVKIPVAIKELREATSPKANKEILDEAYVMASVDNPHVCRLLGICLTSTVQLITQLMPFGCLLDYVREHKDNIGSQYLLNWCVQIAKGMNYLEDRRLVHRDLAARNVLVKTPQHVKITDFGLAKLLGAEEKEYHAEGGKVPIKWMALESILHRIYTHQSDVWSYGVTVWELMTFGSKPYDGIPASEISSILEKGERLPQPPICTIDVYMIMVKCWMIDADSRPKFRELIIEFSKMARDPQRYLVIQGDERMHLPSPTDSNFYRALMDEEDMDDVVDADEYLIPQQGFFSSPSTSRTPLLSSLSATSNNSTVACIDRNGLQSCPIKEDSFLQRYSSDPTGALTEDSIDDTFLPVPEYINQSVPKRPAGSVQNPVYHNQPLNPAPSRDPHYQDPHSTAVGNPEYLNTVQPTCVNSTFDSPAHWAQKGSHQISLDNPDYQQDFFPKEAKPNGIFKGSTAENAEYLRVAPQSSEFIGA

[3] = system: contracting cardiomyocytes derived from human fibroblast cells; test: Responses of reprogrammed cardiomyocytes to β-adrenergic and muscarinic stimulation; type: cell-based; conditions: cardiomyocytes reprogrammed from CRL-2097
Method: Naïve human fibroblast CRL-2097 cells were treated with cardiac reprogramming medium for 6 days followed by treatment with cardiac induction medium 1 for 5 days and then cardiac induction medium 2 for 21-26 days.
Representative beating frequencies of the reprogrammed cells are shown in FIG. 7A before (i) or after β-adrenergic stimulation by its agonist (ii, isoproterenol), or a muscarinic agonist (iii. Carbachol; CCh).

SAPK2/p38 = SAPK2/p38 (Homo sapiens, UniProt Q16539); conditions: CK1 and ALK5 inhibitor vs SAPK2/p38; cited from earlier work
Sequence of SAPK2/p38 (Q16539 whole entry): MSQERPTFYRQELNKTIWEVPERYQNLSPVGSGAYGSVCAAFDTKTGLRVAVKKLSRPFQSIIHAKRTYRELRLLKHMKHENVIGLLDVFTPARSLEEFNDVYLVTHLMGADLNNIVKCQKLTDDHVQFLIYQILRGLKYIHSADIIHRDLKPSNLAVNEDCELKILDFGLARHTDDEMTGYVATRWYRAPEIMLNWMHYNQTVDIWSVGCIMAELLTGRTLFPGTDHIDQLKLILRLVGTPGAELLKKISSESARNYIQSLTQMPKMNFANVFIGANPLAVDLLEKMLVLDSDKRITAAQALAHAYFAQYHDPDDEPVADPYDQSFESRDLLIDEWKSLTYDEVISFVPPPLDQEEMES

[4] = system: human foreskin fibroblast cells; test: Reprogramming with PBIT as a substitute for AS8351; type: cell-based
Method: FIG. 8A graphically illustrates the knockdown efficiency of the indicated shRNAs in human foreskin fibroblast cells detected by qPCR (n=2). Expression values for each gene were normalized to those measured in control shRNA group. […] Data were collected on day 30. […] Data were collected on day 30. […] FIG. 8E illustrates immunofluorescence staining of cardiomyocyte markers on contracting clusters at day 30 after inducing reprogramming where AS8351 was replaced with 10 μM PBIT. Scale bars, 100 μm. […] Em, membrane potential. Dotted lines indicate 0 mV. F/F0, fluorescence relative to the baseline.
This conclusion was further confirmed by using a KDM5B inhibitor, PBIT (Sayegh et al., 2013) (FIGS. 8C and 8D).
KDM5B catalyzes the demethylation of tri-, di-, and mono-methylation states of H3K4 and facilitates heterochromatin formation (Mosammaparast and Shi, 2010). The inventors have observed that one effect of the reprogramming compositions described herein is on re-opening closed chromatin structures.

RasGAP = molecular target: T1, RasGAP (Homo sapiens, UniProt P20936); conditions: cited from earlier work
T1 sequence (P20936 1-1047): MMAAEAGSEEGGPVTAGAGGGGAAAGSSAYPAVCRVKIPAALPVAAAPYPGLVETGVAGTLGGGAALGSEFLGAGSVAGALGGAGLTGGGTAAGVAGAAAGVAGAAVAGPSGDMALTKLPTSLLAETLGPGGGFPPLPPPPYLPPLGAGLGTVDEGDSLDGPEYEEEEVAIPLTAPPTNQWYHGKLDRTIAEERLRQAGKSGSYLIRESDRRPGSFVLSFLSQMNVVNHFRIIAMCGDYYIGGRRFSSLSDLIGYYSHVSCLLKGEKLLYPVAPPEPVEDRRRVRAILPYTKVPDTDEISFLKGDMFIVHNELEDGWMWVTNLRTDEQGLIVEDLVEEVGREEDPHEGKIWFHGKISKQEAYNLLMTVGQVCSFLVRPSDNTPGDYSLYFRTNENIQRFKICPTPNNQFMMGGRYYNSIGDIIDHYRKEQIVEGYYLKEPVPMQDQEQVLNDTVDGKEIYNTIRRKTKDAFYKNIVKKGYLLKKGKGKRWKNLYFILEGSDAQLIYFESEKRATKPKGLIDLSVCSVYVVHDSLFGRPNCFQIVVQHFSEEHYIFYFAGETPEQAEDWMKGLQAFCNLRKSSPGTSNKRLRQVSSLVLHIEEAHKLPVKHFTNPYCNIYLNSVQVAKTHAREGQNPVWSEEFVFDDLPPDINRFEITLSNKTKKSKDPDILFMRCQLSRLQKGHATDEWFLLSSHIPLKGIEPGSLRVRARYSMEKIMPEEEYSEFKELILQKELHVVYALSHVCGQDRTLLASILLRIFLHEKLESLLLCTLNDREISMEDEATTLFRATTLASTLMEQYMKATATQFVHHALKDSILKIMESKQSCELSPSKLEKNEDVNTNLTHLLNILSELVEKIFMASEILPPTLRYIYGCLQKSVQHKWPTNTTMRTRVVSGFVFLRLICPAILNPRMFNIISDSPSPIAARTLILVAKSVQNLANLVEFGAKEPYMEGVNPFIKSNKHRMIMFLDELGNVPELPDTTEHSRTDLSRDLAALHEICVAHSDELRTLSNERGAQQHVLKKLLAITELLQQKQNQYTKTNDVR

ERK1 = ERK1 (Homo sapiens, UniProt P27361); conditions: cited from earlier work
Sequence of ERK1 (P27361 whole entry, species assumed): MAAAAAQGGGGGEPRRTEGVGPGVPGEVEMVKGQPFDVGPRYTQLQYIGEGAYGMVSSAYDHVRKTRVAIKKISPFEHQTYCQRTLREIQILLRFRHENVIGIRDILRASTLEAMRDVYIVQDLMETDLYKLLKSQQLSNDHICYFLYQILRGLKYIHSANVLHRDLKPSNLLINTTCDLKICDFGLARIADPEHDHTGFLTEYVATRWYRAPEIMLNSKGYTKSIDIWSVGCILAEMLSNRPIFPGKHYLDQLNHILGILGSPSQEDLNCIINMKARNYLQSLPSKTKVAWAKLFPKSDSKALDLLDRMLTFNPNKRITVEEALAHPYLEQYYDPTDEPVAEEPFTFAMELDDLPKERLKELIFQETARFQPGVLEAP

[5] = system: human adult dermal fibroblasts (HADFs); test: Conversion of human adult dermal fibroblasts into chemically induced cardiomyocytes; type: cell-based
Text: 9C is the reprogramming conditions; CCM. CM-conditioned medium; D, day. […] FIG. 9C graphically illustrates test protocols for ascertaining optimal treatment durations for a combination of sodium butyrate and SMER28 (NS) (n=3). The duration shown on the x-axis of the left graph is days (e.g., D0=day zero; D-14=day 14 of treatment). […] Scale bars, 100 μm.

[6] = molecular target: platelet-derived growth factor receptor β (PDGFRβ) (Homo sapiens, UniProt P09619); conditions: cited from earlier work
Sequence of platelet-derived growth factor receptor β (PDGFRβ) (P09619 33-1106): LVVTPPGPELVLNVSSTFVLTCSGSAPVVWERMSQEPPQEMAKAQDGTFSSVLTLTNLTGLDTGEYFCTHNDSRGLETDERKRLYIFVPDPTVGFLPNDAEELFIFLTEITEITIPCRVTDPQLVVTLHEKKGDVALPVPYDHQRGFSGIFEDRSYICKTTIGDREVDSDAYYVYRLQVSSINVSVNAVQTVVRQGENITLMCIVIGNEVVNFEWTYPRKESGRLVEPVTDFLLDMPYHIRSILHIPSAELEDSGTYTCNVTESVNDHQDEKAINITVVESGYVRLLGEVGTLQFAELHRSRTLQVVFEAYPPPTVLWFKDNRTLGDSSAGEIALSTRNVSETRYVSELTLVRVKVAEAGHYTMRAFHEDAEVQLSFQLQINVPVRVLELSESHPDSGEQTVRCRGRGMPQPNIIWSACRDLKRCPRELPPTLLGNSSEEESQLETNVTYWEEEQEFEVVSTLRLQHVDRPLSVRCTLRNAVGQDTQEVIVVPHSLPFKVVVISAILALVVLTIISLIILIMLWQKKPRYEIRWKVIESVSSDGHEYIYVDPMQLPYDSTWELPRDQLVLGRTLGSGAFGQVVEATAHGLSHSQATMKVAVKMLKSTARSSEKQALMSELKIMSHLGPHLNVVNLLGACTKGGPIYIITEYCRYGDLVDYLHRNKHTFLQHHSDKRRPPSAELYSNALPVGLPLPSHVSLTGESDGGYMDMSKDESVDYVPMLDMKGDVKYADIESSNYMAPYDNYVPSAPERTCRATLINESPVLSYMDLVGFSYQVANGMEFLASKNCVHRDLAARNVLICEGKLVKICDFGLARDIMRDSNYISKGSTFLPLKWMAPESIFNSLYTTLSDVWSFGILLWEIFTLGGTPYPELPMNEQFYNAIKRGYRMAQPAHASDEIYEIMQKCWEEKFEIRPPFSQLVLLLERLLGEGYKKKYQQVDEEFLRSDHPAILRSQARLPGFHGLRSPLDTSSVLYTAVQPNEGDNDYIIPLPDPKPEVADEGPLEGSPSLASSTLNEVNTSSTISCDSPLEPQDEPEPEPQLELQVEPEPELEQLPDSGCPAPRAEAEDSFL

[7] = 7-day pretreatment before reprogramming

Compound: N#CC(C#N)=Cc1ccc(O)c(O)c1 [AG18, [(3,4-Dihydroxyphenyl)methylene]-propenedinitrile]
- IC50 [1]: 25 µM

Compound: N#CC(=Cc1ccc2[nH]ccc2c1)C(N)=C(C#N)C#N [AG-370, 2-Amino-4-(1H-indol-5-yl)-1,1,3-tricyanobuta-1,3-diene]
- IC50 [2]: 820 µM
- IC50 [1]: 20 µM

Compound: COc1cc2ncc(-c3ccccc3)nc2cc1OC [AG-1296, 6,7-Dimethoxy-3-phenylquinoxaline]
- IC50 [1]: 1 µM

Compound: C[N+](C)(C)CCOC(N)=O [Cch, carbachol]
- effect on beating frequency [3]: opposite, negative effect

Compound: NC(=O)c1ccc(-c2nc(-c3ccc4c(c3)OCCO4)c(-c3ccccn3)[nH]2)cc1 [D 4476, 4-[4-(2,3-Dihydro-1,4-benzodioxin-6-yl)-5-(2-pyridinyl)-1H-imidazol-2-yl]benzamide]
- selectivity over SAPK2/p38 (SAPK2/p38): greater than 20 fold

Compound: Cc1ccc(-n2sc3ccccc3c2=O)cc1 [PBIT, 2-(4-methylphenyl)-1,2-benzisothiazol-3(2H)-one]
- electrophysiological features ([4]; 10 μM PBIT as a substitute for AS8351): exhibited CM-like electrophysiological features
- expression of cardiac proteins ([4]; 10 μM PBIT as a substitute for AS8351, day 30): expressed a broad panel of cardiac proteins

Compound: Cc1cc(Nc2ncc3c(n2)N(C)C(=O)N(c2cc(NC(=O)c4cccc(C(F)(F)F)c4)ccc2C)C3)n(C)n1 [SC1, N-(3-(7-(1,3-dimethyl-1H-pyrazol-5-ylamino)-1-methyl-2-oxo-1,2-dihydropyrimido[4,5-d]pyrimidin-3(4H)-yl)-4-methylphenyl)-3-(trifluoromethyl)benzamide]
- Kd (RasGAP): 0.098 µM
- Kd (ERK1): 0.212 µM

Compound: C=CCNc1ncnc2ccc(Br)cc12 [SMER28]
- generation of beating cardiac clusters from HADFs [5, 7]: enabled the generation of beating cardiac clusters
- proliferation of HADFs [5, 7]: increased the proliferation of HADFs

Compound: Cc1[nH]c(C=C2C(=O)Nc3ccccc32)c(C)c1CCC(=O)O [SU 6668]
- IC50 [6]: 0.06 µM

Compound: CC(C)(C)c1cc(C=C(C#N)C#N)cc(C(C)(C)C)c1O [Tyrphostin 9]
- IC50 [1]: 1.2 µM

Compound: N#C/C(=C\c1ccc(O)c(O)c1)C(N)=O [Tyrphostin 46]
- IC50 [1]: 50 µM

Compound: CC(C)NCC(O)c1ccc(O)c(O)c1 (centres unmarked) [isoproterenol]
- effect on beating frequency [3]: significantly increased

Compound: CCCC(=O)[O-].[Na+] [sodium butyrate (NaB), sodium butyrate]
- induction efficiency of HADFs ([5]; pretreatment in combination with SMER28): further increased the induction efficiency of HADFs
